Tests used:
human ETB receptor = molecular target: T1, human ETB receptor (Homo sapiens, UniProt P24530); assay: In vitro antagonistic effect against human ETB receptor, Ca2+ signal in transfected CHO cells; assay type: cell-based; details: response to 0.3 nM endothelin-1
T1 construct: host or cells: CHO cells
T1 sequence (P24530 27-442): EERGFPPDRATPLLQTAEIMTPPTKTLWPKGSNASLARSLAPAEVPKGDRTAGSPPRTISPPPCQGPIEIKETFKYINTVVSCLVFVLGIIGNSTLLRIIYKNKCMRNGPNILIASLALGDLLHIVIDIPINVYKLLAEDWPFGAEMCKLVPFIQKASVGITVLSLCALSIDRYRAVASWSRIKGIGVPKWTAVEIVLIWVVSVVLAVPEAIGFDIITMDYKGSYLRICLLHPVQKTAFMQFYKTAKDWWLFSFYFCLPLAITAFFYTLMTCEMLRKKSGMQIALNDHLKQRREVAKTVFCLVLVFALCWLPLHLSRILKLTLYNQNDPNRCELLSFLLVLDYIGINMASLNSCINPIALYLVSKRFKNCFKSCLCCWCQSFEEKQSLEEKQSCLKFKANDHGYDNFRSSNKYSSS
Procedure: Antagonist activity of the compound against human ETB receptors expressed in transfected CHO cells was evaluated by measuring the effect of the compound on the changes in the cytoplasmic Ca^2+ ion signal induced by human ETB receptor agonists. The functional activity of the ETB receptor antagonistic effect was tested in Eurofins-Cerep SA according to current standard procedures.
1. Cells were suspended in DMEM buffer (Invitrogen) and then distributed in 384-well plate (100 μL/well) at a density of 3×10^4 cells/well;
(§1) 2. Probenecid in HBSS buffer (Invitrogen) supplemented with 20 mM Hepes (Invitrogen) (pH 7.4) was mixed with fluorescent probe (Fluo4 NW, Invitrogen), the mixture was added to each wells, then balanced with cells at 37° C. for 60 minutes, and then balanced with cells at 22° C. for 15 minutes;
(§2) 3. The test plate was placed in a microplate reader (CellLux, PerkinElmer), a DMSO solution or HBSS buffer with an appropriate concentration of the test compound and the positive control was added, and 0.3 nM endothelin-1 or HBSS buffer (base control) was added after 5 minutes, and then the change in fluorescence intensity proportional to the concentration of Ca^2+ ions of […] was measured;
4. Results were shown as the percent inhibition of control response to 0.3 nM endothelin-1;
5. Standard positive control was BQ-788, several concentrations were tested in each experiments. The data was analyzed using Prism to generate a concentration-response curve, and IC50 values of the compounds were calculated.

human ETA receptor = molecular target: T2, human ETA receptor (Homo sapiens, UniProt P25101); assay: In vitro antagonistic effect against human ETA receptor, Ca2+ signal in SK-N-MC cells; assay type: cell-based; details: for IC50: SK-N-MC cells, response to 1 nM endothelin-1; for ETA/ETB selectivity: ratio of ETB IC50 to ETA IC50
T2 construct: endogenously expressed human ETA receptors in SK-N-MC cells; host or cells: SK-N-MC cells
T2 sequence (P25101 21-427): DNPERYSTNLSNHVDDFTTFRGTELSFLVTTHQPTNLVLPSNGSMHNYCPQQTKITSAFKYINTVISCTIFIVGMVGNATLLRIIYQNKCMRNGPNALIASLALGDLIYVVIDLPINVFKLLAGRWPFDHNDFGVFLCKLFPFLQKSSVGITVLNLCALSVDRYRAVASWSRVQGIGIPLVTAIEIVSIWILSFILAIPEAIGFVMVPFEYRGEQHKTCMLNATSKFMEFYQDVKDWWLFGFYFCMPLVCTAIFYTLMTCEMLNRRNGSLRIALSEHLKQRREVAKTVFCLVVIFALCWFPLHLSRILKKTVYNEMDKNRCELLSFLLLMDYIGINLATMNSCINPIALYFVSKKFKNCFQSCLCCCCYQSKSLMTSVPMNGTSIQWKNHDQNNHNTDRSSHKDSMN
Procedure: Experimental Embodiment 1: In Vitro Test of Antagonistic Effect Against Human ETA Receptor
Antagonistic activity of the compounds against endogenously expressed human ETA receptors in SK-N-MC cells was evaluated by measuring the effect of compounds on the changes in cytoplasmic Ca^2+ ion signal induced by human ETA receptor agonists using fluorescence detection methods. The functional activity of the ETA receptor antagonistic effect was tested in Eurofins-Cerep SA according to current standard procedures.
1. Cells were suspended in Dulbecco's modified Eagle medium solution (DMEM, Invitrogen) supplemented with 1% FCSd, then distributed in 384-well plate (100 μL/well) at a density of 5×10^4 cells/well;
as §1, with “Hank's balanced salt solution (HBSS, Invitrogen)” for “HBSS buffer (Invitrogen)”, “4-(2-hydroxyethyl)piperazine-1-ethanesulfonic acid (Hepes, Invitrogen)” for “Hepes (Invitrogen)”
as §2, with “1” for “0.3”
5. Standard positive control was BQ-123, several concentrations were tested in each experiments. The data was analyzed using Prism to generate a concentration-response curve, and IC50 values of the compounds were calculated.

SMILES	IC50 (human ETB receptor) [nM]	IC50 (human ETA receptor) [nM]	ETA/ETB selectivity (human ETA receptor)
COCCNS(=O)(=O)Nc1ncnc(OCCOc2ncc(Br)cn2)c1-c1ccc2c(c1)CCO2 [WX034]	200000	3.6	55500
O=S(=O)(Nc1ncnc(OCCOc2ncc(Br)cn2)c1-c1ccc2c(c1)OCC2)N1CC2(COC2)C1 [WX032]	> 30000	3	>10000
O=S(=O)(NCC1CC1)Nc1ncnc(OCCOc2ncc(Br)cn2)c1-c1ccc2c(c1)OCO2 [WX014]	35000	1.3	26900
CCCNS(=O)(=O)Nc1ncnc(OCCOc2ncc(Br)cn2)c1-c1ccc2c(c1)CCO2 [WX033]	> 30000	1.6	>18700
COCCCNS(=O)(=O)Nc1ncnc(OCCOc2ncc(Br)cn2)c1-c1ccc2scnc2c1 [WX007]	35000	2.1	16600
CS(=O)(=O)CCNS(=O)(=O)Nc1ncnc(OCCOc2ncc(Br)cn2)c1-c1ccc2c(c1)OCO2 [WX022]	76000	2.1	36100
O=S(=O)(Nc1ncnc(OCCOc2ncc(Br)cn2)c1-c1ccc2c(c1)OCC2)N1C[C@H]2C[C@H]2C1 [WX031]	> 100000	1.1	>90900
O=S(=O)(Nc1ncnc(OCCOc2ncc(Br)cn2)c1-c1ccc2c(c1)OCO2)NC1CCC1 [WX011]	22000	1	22000
O=S(=O)(NCC1CCCO1)Nc1ncnc(OCCOc2ncc(Br)cn2)c1-c1ccc2c(c1)OCO2 (single isomer, unassigned) [WX023]	15000	0.32	46800
CCOCCCNS(=O)(=O)Nc1ncnc(OCCOc2ncc(Br)cn2)c1-c1ccc2c(c1)OCO2 [WX018]	9600	0.76	12600
CCCCNS(=O)(=O)Nc1ncnc(OCCOc2ncc(Br)cn2)c1-c1ccc2c(c1)OCO2 [WX012]	16000	0.17	94100
COCCCNS(=O)(=O)Nc1ncnc(OCCOc2ncc(Br)cn2)c1-c1ccc2c(c1)OCO2 [WX017]	16000	0.45	35500

The remaining lines, values ahead:

IC50 (human ETB receptor) [nM]	IC50 (human ETA receptor) [nM]	ETA/ETB selectivity (human ETA receptor)	SMILES
46000	0.34	135200	O=S(=O)(NCC1CCCO1)Nc1ncnc(OCCOc2ncc(Br)cn2)c1-c1ccc2c(c1)OCO2 (stereo not drawn) [WX021]
22000	0.79	27800	CCCOCCNS(=O)(=O)Nc1ncnc(OCCOc2ncc(Br)cn2)c1-c1ccc2c(c1)OCO2 [WX016]
16000	0.65	24600	CCCNS(=O)(=O)Nc1ncnc(OCCOc2ncc(Br)cn2)c1-c1ccc2c(c1)OCC2 [WX029]
> 300000	1.3	>230700	CCCOCCNS(=O)(=O)Nc1ncnc(OCCOc2ncc(Br)cn2)c1-c1ccc2scnc2c1 [WX006]
61000	1.5	40600	O=S(=O)(NCC(F)(F)F)Nc1ncnc(OCCOc2ncc(Br)cn2)c1-c1ccc2c(c1)OCO2 [WX010]
33000	1.3	25300	COCCNS(=O)(=O)Nc1ncnc(OCCOc2ncc(Br)cn2)c1-c1ccc2c(c1)OCC2 [WX030]
73000	1.1	66300	CCCCNS(=O)(=O)Nc1ncnc(OCCOc2ncc(Br)cn2)c1-c1ccc2ccnn2c1 [WX026]
6700	0.25	26800	O=S(=O)(NCC1CCCO1)Nc1ncnc(OCCOc2ncc(Br)cn2)c1-c1ccc2c(c1)OCO2 (single isomer, unassigned) [WX024]
280000	0.43	651100	CCCNS(=O)(=O)Nc1ncnc(OCCOc2ncc(Br)cn2)c1-c1ccc2c(c1)OCO2 [WX008]
71000	2.6	27300	O=S(=O)(NCC(F)(F)F)Nc1ncnc(OCCOc2ncc(Br)cn2)c1-c1ccc2scnc2c1 [WX003]
> 300000	0.86	>348800	CCOCCNS(=O)(=O)Nc1ncnc(OCCOc2ncc(Br)cn2)c1-c1ccc2c(c1)OCO2 [WX015]
17000	0.35	48500	O=S(=O)(NCC1CCC1)Nc1ncnc(OCCOc2ncc(Br)cn2)c1-c1ccc2c(c1)OCO2 [WX020]
21000	1.5	14000	CCCCNS(=O)(=O)Nc1ncnc(OCCOc2ncc(Br)cn2)c1-c1ccc2scnc2c1 [WX004]
> 100000	2	>50000	O=S(=O)(Nc1ncnc(OCCOc2ncc(Br)cn2)c1-c1ccc2c(c1)OCC2)N1CCC2(CC1)CC2 [WX028]
> 300000	2.8	>107000	CCNS(=O)(=O)Nc1ncnc(OCCOc2ncc(Br)cn2)c1-c1ccc2scnc2c1 [WX002]
> 30000	0.44	>68100	O=S(=O)(NCC1CCOCC1)Nc1ncnc(OCCOc2ncc(Br)cn2)c1-c1ccc2c(c1)OCO2 [WX019]
68000	2.8	24200	O=S(=O)(NCC1CC1)Nc1ncnc(OCCOc2ncc(Br)cn2)c1-c1ccc2ccnn2c1 [WX027]
71000	2.3	30800	CCNS(=O)(=O)Nc1ncnc(OCCOc2ncc(Br)cn2)c1-c1ccc2c(c1)OCO2 [WX009]

From patent US11319305B2, “Pyrimidine sulfamide derivative and preparation method and medical application thereof” (SHIJIAZHUANG SAGACITY NEW DRUG DEVELOPMENT CO., LTD., priority 2017, dated 2022)
